The values that follow come from US10168342B2, “Lipid probes and uses thereof” (THE SCRIPPS RESEARCH INSTITUTE, priority 2015, dated 2019).

Assay in all cases: isoTOP-ABPP mapping of AEA-DA-modified peptides in Neuro2a cells
Holding throughout (assay type): cell-based

For assay [1], the target named is T1, AEA-DA-modified peptides in Neuro2a cells (Mus musculus, UniProt O88545).
T1 construct: endogenous in cells; host or cells: Neuro2a
Conditions: AEA-DA-modified peptide COPS6 O88545 274-295, SEQ ID NO 24; probe 100 μM, 12 replicates. On the procedure: (§1) Experiments were performed as described above using the AEA-DA probe (100 μM) in 3.0 mL of DMEM (serum-free) and Neuro2A cells without (twelve replicates; ten biological; two technical). For the ligand competition study, cells were treated with the AEA-DA probe (50 μM) and DMSO or MJN228 (50 μM) treatment. Cells were harvested and processed as described above. Whole cell lysates (500 μL at 1.5 mg/mL) were processed for MS analysis using the previously described isoTOPABPP protocol (Speers and Cravatt, 2005). In brief, for global mapping of AEA-DA-modified peptides, proteomes were split into two fractions, which were subjected to click chemistry conditions with either light or heavy isotopically labeled TEV-tags. For the […] competition study, proteomes were subjected to click chemistry conditions with either light (DMSO) or heavy (MJN228-treated) TEV-tags. Light and heavy-tagged proteomes in each experiment were then combined, and, following enrichment of probe-labeled targets using streptavidin beads, proteins were digested on-bead with trypsin and remaining immobilized peptides released with a subsequent TEV protease digestion. The resulting probe-modified peptides were collected for MS analysis, which was performed as described above with differences in the salt bumps applied in the chromatographic gradients which were 0%, 30%, 60%, 90% and 100% NH4OAc (500 mM). The protein identification searches of the MS data were performed using the same software packages described above with the following changes applied to identify the peptides modified with AEA-DA and the cleaved TEV tag. All amino acids were considered as possible residues for modification. To facilitate the computational searches, sets of up to 3 amino acids were searched using ProLuCID and filtered with DTASelect as described above. The mass of the modification used to search for probe-modified peptides was +727.4745 m/z for the probe plus the light TEV-tag and +733.4831 m/z for the heavy counterpart. […] For global mapping experiments, AEA-DA-modified peptides were expected to show a ratio of “heavy” and “light” signals of ˜1.0 (0.5<ratio<2.0) and were required to have been detected in at least two of the twelve replicate experiments.
(§2) In some embodiments, the ligands are tested for their interaction to NUCB1 in cells. […] MJN228 inhibited lipid probe binding to NUCB1 at concentrations as low as 10 μM, with near-maximal inhibition observed at ˜25 μM (FIG. 16A). […] The site of arachidonoyl probe (and MJN228) binding to NUCB1 was mapped in cells, which was accomplished by treating Neuro2A cells with the AEA-DA probe (50 μM) in the presence of DMSO or MJN228 (50 μM), followed by UV irradiation, CuAAC conjugation of AEA-DA-labeled proteins to isotopically light (DMSO-treated cells) and heavy (MJN228-treated cells) azide-biotin tags featuring a TEV protease-cleavable linker, and LCMS/MS analysis using a previously described platform, termed isoTOP-ABPP, for mapping probe-modified peptides in proteomes (Speers and Cravatt, 2005). A AEA-DA labeled peptide was identified for NUCB1 (aa 53-68) in DMSO-treated cells and the signals for this peptide were substantially (>5-fold) reduced in MJN228-treated cells (FIG. 15C). This AEA-DA labeling site was confirmed using recombinant, purified hNUCB1 and tandem MS analysis which narrowed down the site of probe modification to His67 (FIGS. 16B and 16C).

Assay [2] concerns the target T2, AEA-DA-modified peptides in Neuro2a cells (Mus musculus, UniProt P15626).
T2 construct: endogenous in cells; host or cells: Neuro2a
Particulars: AEA-DA-modified peptide GSTM2 P15626 109-123, SEQ ID NO 45; probe 100 μM, 12 replicates. On the procedure:
as §1, §2

Assay [3] concerns the target T3, AEA-DA-modified peptides in Neuro2a cells (Mus musculus, UniProt P70699).
T3 construct: endogenous in cells; host or cells: Neuro2a
Particulars: AEA-DA-modified peptide GAA P70699 904-935, SEQ ID NO 41; probe 100 μM, 12 replicates. On the procedure: as §1, §2

The target in assay [4] is T4, AEA-DA-modified peptides in Neuro2a cells (Mus musculus, UniProt Q60716).
T4 construct: endogenous in cells; host or cells: Neuro2a
Particulars: AEA-DA-modified peptide P4HA2 Q60716 177-197, SEQ ID NO 76; probe 100 μM, 12 replicates. On the procedure: as §1, §2

Assay [5] addresses T5, AEA-DA-modified peptides in Neuro2a cells (Mus musculus, UniProt Q61335).
T5 construct: endogenous in cells; host or cells: Neuro2a
Conditions: AEA-DA-modified peptide BCAP31 Q61335 73-80, SEQ ID NO 21; probe 100 μM, 12 replicates. The method, then: as §1, §2

Assay [6] has as its target T6, AEA-DA-modified peptides in Neuro2a cells (Mus musculus, UniProt Q8BFY9).
T6 construct: endogenous in cells; host or cells: Neuro2a
Conditions: AEA-DA-modified peptide TNPO1 Q8BFY9 45-65, SEQ ID NO 114; probe 100 μM, 12 replicates. The method, then: as §1, §2

Assay [7] addresses T7, AEA-DA-modified peptides in Neuro2a cells (Mus musculus, UniProt Q8K411).
T7 construct: endogenous in cells; host or cells: Neuro2a
Conditions: AEA-DA-modified peptide PITRM1 Q8K411 364-386, SEQ ID NO 87; probe 100 μM, 12 replicates. The method, then:
as §1, §2

The target in assay [8] is T8, AEA-DA-modified peptides in Neuro2a cells (Mus musculus, UniProt Q8VC28).
T8 construct: endogenous in cells; host or cells: Neuro2a
Conditions: AEA-DA-modified peptide AKR1C13 Q8VC28 48-69, SEQ ID NO 7; probe 100 μM, 12 replicates. The method, then: as §1, §2

Assay [9] addresses T9, AEA-DA-modified peptides in Neuro2a cells (Mus musculus, UniProt Q9CQV8).
T9 construct: endogenous in cells; host or cells: Neuro2a
Conditions: AEA-DA-modified peptide YWHAB Q9CQV8 196-225, SEQ ID NO 120; probe 100 μM, 12 replicates. On the procedure: as §1, §2

Assay [10] has as its target T10, AEA-DA-modified peptides in Neuro2a cells (Mus musculus, UniProt Q9D379).
T10 construct: endogenous in cells; host or cells: Neuro2a
Conditions: AEA-DA-modified peptide EPHX1 Q9D379 296-329, SEQ ID NO 39; probe 100 μM, 12 replicates. The method, then: as §1, §2

Assay [11] has as its target T11, AEA-DA-modified peptides in Neuro2a cells (Mus musculus, UniProt Q9DCZ4).
T11 construct: endogenous in cells; host or cells: Neuro2a
Conditions: AEA-DA-modified peptide APOO Q9DCZ4 187-197, SEQ ID NO 9; probe 100 μM, 12 replicates. The method, then: as §1, §2

In assay [12] the target is T12, AEA-DA-modified peptides in Neuro2a cells (Mus musculus, UniProt Q9QUM9).
T12 construct: endogenous in cells; host or cells: Neuro2a
Conditions: AEA-DA-modified peptide PSMA6 Q9QUM9 103-117, SEQ ID NO 89; probe 100 μM, 12 replicates. The method, then: as §1, §2

T9 sequence (Q9CQV8 whole entry): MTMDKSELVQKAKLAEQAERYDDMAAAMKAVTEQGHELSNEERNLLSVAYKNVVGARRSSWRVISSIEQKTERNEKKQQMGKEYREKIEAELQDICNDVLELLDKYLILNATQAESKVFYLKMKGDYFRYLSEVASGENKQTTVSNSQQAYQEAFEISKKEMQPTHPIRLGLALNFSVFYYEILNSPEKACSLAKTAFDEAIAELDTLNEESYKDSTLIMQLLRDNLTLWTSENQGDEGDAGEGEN
T10 sequence (Q9D379 whole entry): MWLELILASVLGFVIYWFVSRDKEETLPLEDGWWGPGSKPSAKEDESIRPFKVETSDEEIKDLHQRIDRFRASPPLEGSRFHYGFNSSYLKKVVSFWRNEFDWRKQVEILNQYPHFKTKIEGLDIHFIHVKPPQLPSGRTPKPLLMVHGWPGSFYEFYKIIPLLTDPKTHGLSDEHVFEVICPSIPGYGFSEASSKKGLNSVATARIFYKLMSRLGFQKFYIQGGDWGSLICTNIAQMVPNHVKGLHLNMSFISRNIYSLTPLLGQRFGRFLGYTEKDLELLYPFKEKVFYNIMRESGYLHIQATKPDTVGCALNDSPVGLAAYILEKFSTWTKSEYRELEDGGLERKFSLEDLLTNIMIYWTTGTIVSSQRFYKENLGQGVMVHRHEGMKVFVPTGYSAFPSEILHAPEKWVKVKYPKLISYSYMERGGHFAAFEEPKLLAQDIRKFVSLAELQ
T6 sequence (Q8BFY9 whole entry): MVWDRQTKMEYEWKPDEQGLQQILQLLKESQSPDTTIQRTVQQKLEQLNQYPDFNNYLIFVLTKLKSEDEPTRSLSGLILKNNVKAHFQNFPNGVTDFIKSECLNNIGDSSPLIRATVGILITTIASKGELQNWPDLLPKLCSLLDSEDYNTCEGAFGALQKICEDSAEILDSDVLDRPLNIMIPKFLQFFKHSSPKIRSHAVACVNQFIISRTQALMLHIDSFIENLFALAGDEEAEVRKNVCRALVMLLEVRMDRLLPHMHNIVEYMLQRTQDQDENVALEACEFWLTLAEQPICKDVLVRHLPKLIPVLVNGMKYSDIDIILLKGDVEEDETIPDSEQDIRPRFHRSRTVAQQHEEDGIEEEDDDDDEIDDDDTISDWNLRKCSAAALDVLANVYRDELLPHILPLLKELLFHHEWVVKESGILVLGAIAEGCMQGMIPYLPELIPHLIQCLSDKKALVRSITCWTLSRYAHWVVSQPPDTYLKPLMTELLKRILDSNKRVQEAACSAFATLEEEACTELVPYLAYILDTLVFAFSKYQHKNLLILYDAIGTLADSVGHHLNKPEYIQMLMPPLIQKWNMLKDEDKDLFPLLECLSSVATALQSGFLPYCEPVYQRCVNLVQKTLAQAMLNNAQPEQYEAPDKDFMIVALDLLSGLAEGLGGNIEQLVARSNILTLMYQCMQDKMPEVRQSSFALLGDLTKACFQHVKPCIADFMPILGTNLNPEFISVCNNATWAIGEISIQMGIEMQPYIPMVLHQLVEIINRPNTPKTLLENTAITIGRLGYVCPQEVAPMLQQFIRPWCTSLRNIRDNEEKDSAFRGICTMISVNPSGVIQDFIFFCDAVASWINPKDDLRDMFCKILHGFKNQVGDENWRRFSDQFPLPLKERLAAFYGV
T5 sequence (Q61335 whole entry): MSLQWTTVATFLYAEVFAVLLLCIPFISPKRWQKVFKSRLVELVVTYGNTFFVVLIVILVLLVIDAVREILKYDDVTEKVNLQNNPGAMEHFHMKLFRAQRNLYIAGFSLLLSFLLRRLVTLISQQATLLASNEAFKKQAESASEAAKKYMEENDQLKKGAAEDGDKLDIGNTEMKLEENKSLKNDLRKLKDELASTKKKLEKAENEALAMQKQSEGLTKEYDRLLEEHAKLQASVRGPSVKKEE
T12 sequence (Q9QUM9 whole entry): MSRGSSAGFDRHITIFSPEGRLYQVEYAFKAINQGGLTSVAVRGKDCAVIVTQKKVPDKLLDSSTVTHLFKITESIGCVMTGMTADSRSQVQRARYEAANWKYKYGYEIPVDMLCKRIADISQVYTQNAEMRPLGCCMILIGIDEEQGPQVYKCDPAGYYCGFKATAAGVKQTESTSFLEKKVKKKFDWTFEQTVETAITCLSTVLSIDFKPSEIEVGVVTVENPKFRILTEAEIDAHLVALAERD
T1 sequence (O88545 whole entry): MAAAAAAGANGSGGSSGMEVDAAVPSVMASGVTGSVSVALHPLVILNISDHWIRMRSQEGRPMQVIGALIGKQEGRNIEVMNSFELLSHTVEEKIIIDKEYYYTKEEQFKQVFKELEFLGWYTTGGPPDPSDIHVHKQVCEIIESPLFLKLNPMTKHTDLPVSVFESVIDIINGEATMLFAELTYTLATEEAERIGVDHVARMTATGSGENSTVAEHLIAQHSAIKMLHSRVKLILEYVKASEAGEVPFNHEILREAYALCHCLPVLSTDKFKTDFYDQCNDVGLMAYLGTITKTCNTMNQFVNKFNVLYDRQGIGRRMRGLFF
T4 sequence (Q60716 24-537): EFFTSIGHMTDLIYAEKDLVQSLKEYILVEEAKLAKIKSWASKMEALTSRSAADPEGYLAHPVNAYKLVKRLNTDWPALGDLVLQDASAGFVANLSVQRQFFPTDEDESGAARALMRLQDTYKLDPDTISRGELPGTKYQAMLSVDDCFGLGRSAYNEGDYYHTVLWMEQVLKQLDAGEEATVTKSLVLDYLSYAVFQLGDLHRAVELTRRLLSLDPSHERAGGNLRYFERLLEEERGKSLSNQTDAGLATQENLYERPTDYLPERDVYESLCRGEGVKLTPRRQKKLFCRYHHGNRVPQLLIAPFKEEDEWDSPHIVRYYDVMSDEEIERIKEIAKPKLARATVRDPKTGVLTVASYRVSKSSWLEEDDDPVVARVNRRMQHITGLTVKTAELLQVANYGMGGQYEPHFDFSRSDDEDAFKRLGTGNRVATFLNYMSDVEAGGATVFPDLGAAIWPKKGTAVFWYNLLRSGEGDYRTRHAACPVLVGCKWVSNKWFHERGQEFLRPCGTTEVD
T8 sequence (Q8VC28 whole entry): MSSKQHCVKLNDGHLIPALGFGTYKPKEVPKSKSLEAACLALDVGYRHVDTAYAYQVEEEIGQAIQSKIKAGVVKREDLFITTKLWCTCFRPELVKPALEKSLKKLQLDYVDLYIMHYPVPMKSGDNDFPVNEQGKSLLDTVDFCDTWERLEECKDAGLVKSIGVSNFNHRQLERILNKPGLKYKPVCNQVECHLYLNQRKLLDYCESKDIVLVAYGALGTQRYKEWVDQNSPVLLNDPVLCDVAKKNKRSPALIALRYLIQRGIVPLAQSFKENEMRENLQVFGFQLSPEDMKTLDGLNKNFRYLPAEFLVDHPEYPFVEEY
T3 sequence (P70699 70-953): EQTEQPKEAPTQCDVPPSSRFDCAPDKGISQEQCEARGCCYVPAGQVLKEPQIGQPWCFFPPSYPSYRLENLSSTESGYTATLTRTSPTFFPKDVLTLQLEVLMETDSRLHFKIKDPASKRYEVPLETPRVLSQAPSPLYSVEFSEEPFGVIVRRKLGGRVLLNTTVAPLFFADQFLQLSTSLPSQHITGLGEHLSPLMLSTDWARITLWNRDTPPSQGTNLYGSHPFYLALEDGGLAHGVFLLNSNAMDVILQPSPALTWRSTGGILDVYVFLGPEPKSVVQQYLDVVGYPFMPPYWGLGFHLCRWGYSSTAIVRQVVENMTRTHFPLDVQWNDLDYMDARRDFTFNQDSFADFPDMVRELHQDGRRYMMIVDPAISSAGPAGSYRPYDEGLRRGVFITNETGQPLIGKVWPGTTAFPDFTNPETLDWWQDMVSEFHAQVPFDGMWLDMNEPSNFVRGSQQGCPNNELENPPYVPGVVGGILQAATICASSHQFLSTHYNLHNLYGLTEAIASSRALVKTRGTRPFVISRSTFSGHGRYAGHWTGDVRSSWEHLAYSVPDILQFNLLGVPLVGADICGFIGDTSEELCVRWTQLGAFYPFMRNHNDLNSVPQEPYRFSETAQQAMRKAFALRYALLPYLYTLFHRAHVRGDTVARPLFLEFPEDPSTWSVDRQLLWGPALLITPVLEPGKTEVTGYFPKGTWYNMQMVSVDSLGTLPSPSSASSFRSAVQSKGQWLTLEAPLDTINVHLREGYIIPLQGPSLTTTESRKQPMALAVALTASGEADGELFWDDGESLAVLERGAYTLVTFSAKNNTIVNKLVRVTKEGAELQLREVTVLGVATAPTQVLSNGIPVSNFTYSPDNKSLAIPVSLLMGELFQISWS
T2 sequence (P15626 whole entry): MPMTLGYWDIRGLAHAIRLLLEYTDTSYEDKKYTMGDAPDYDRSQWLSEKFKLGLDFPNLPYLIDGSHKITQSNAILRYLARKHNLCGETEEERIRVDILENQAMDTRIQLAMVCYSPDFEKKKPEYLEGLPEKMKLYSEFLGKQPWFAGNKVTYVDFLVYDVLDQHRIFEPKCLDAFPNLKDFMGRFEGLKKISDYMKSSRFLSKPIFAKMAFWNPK
T11 sequence (Q9DCZ4 24-198): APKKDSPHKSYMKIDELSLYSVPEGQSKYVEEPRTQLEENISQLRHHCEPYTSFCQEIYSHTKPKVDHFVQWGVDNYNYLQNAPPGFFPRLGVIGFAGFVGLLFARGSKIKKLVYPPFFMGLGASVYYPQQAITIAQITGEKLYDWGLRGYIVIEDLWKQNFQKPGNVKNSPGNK

Consider `C#CCCCC1(CC/C=C\C/C=C\C/C=C\CCCC(=O)NCCO)N=N1` [AEA-DA, (5Z,8Z,11Z)-N-(2-hydroxyethyl)-14-(3-(pent-4-yn-1-yl)-3H-diazirin-3-yl)tetradeca-5,8,11-trienamide], for which the Times observed in assay [1] is 8; in assay [2], 5; in [3], 11; in [4], 3; in assay [5], 2; in assay [6] it was 5. Further, the Times observed turned out to be 2 in assay [7]; 4 in assay [8]; 8 in [9]; 8 in [10]; 2 in assay [11]; 8 in [12].
